Patent US10975080B2, “Compounds and compositions for inhibiting the activity of SHP2” (NOVARTIS AG, priority 2015, dated 2021)

molecular target: SHP2 (Homo sapiens (Human), UniProt Q06124); test: SHP2 Allosteric Inhibition Assay; assay type: biochemical; conditions: 0.5 nM SHP2 with 0.5 μM peptide IRS1_pY1172(dPEG8)pY1222; surrogate substrate DiFMUP; 25° C.; read-out: SHP2 IC50
Description: SHP2 Allosteric Inhibition Assay
SHP2 is allosterically activated through binding of bis-tyrosyl-phosphorylated peptides to its Src Homology 2 (SH2) domains. The latter activation step leads to the release of the auto-inhibitory interface of SHP2, which in turn renders the SHP2 protein tyrosine phosphatase (PTP) active and available for substrate recognition and reaction catalysis. The catalytic activity of SHP2 was monitored using the surrogate substrate DiFMUP in a prompt fluorescence assay format.
After 30-60 minutes incubation at 25° C., the surrogate substrate DiFMUP (Invitrogen, cat #D6567) was added to the reaction and incubated at 25° C. for 30 minutes. […] The inhibitor dose response curves were analyzed using normalized IC50 regression curve fitting with control based normalization.

Compound	IC50 [nM]
C[C@@H]1OCC2(CCN(c3nc4[nH]nc(-c5c(F)ccc(Cl)c5Cl)c4c(=O)n3C)CC2)[C@@H]1N [Example 27, 6-((3S,4S)-4-amino-3-methyl-2-oxa-8-azaspiro[4.5]decan-8-yl)-3-(2,3-dichloro-6-fluorophenyl)-5-methyl-1,5-dihydro-4H-pyrazolo[3,4-d]pyrimidin-4-one]	450
Cn1c(N2CCC(C)(CN)CC2)nc2[nH]nc(-c3ccncc3Cl)c2c1=O [Example 28, 6-(4-(aminomethyl)-4-methylpiperidin-1-yl)-3-(3-chloropyridin-4-yl)-5-methyl-1,5-dihydro-4H-pyrazolo[3,4-d]pyrimidin-4-one]	312
C[C@@H]1OCC2(CCN(c3nc4[nH]nc(-c5ccnc(NC6CCC6)c5Cl)c4c(=O)n3C)CC2)[C@@H]1N [Example 29, 6-((3S,4S)-4-amino-3-methyl-2-oxa-8-azaspiro[4.5]decan-8-yl)-3-(3-chloro-2-(cyclobutylamino)pyridin-4-yl)-5-methyl-1,5-dihydro-4H-pyrazolo[3,4-d]pyrimidin-4-one]	35
CNc1nccc(-c2n[nH]c3nc(N4CCC5(CC4)CO[C@@H](C)[C@H]5N)n(C)c(=O)c23)c1Cl [Example 32, 6-((3S,4S)-4-amino-3-methyl-2-oxa-8-azaspiro[4.5]decan-8-yl)-3-(3-chloro-2-(methylamino)pyridin-4-yl)-5-methyl-1,5-dihydro-4H-pyrazolo[3,4-d]pyrimidin-4-one]	54
C[C@H]1C[C@@H](N)C2(CCN(c3nc4[nH]nc(-c5ccncc5)c4c(=O)n3C)CC2)C1 [Example 36, 6-((1R,3R)-1-amino-3-methyl-8-azaspiro[4.5]decan-8-yl)-5-methyl-3-(pyridin-4-yl)-1,5-dihydro-4H-pyrazolo[3,4-d]pyrimidin-4-one]	9
Cn1c(N2CCC3(CC2)C[C@H](F)C[C@H]3N)nc2[nH]nc(-c3ccccc3)c2c1=O [Example 39, 6-((1R,3S)-1-amino-3-fluoro-8-azaspiro[4.5]decan-8-yl)-5-methyl-3-phenyl-1,5-dihydro-4H-pyrazolo[3,4-d]pyrimidin-4-one]	37
C[C@@H]1OCC2(CCN(c3nc4[nH]nc(-c5ccnc(N)c5)c4c(=O)n3C)CC2)[C@@H]1N [Example 45, 6-((3S,4S)-4-amino-3-methyl-2-oxa-8-azaspiro[4.5]decan-8-yl)-3-(2-aminopyridin-4-yl)-5-methyl-1,5-dihydro-4H-pyrazolo[3,4-d]pyrimidin-4-one]	37
CNc1cc(-c2n[nH]c3nc(N4CCC5(CC4)CO[C@@H](C)[C@H]5N)n(C)c(=O)c23)ccn1 [Example 46, 6-((3S,4S)-4-amino-3-methyl-2-oxa-8-azaspiro[4.5]decan-8-yl)-5-methyl-3-(2-(methylamino)pyridin-4-yl)-1,5-dihydro-4H-pyrazolo[3,4-d]pyrimidin-4-one]	50

Results, then the compound that gave them:

IC50 [nM]	Compound
103	C[C@@H]1OCC2(CCN(c3nc4[nH]nc(-c5ccnc(N6CCOCC6)c5Cl)c4c(=O)n3C)CC2)[C@@H]1N [Example 30, 6-((3S,4S)-4-amino-3-methyl-2-oxa-8-azaspiro[4.5]decan-8-yl)-3-(3-chloro-2-morpholinopyridin-4-yl)-5-methyl-1,5-dihydro-4H-pyrazolo[3,4-d]pyrimidin-4-one]
12	C[C@@H]1OCC2(CCN(c3nc4[nH]nc(-c5ccnc(N6CCCC6)c5Cl)c4c(=O)n3C)CC2)[C@@H]1N [Example 31, 6-((3S,4S)-4-amino-3-methyl-2-oxa-8-azaspiro[4.5]decan-8-yl)-3-(3-chloro-2-(pyrrolidin-1-yl)pyridin-4-yl)-5-methyl-1,5-dihydro-4H-pyrazolo[3,4-d]pyrimidin-4-one]
13	C[C@@H]1OCC2(CCN(c3nc4[nH]nc(-c5ccnc(Cl)c5Br)c4c(=O)n3C)CC2)[C@@H]1N [Example 33, 6-((3S,4S)-4-amino-3-methyl-2-oxa-8-azaspiro[4.5]decan-8-yl)-3-(3-bromo-2-chloropyridin-4-yl)-5-methyl-1,5-dihydro-4H-pyrazolo[3,4-d]pyrimidin-4-one]
27	C[C@@H]1OCC2(CCN(c3nc4[nH]nc(-c5ccnc(Br)c5)c4c(=O)n3C)CC2)[C@@H]1N [Example 34, 6-((3S,4S)-4-amino-3-methyl-2-oxa-8-azaspiro[4.5]decan-8-yl)-3-(2-bromopyridin-4-yl)-5-methyl-1,5-dihydro-4H-pyrazolo[3,4-d]pyrimidin-4-one]
34	CNc1nccc(-c2n[nH]c3nc(N4CCC5(CC4)CO[C@@H](C)[C@H]5N)n(C)c(=O)c23)c1Br [Example 35, 6-((3S,4S)-4-amino-3-methyl-2-oxa-8-azaspiro[4.5]decan-8-yl)-3-(3-bromo-2(methylamino)pyridin-4-yl)-5-methyl-1,5-dihydro-4H-pyrazolo[3,4-d]pyrimidin-4-one]
27	Cn1c(N2CCC3(CC2)C[C@H](F)C[C@H]3N)nc2[nH]nc(-c3ccnc(N)c3Cl)c2c1=O [Example 37, 3-(2-amino-3-chloropyridin-4-yl)-6-((1R,3S)-1-amino-3-fluoro-8-azaspiro[4.5]decan-8-yl)-5-methyl-1,5-dihydro-4H-pyrazolo[3,4-d]pyrimidin-4-one]
11	Cn1c(N2CCC3(CC2)C[C@H](F)C[C@H]3N)nc2[nH]nc(-c3ccnc(NC4CC4)c3Cl)c2c1=O [Example 38, 6-((1R,3S)-1-amino-3-fluoro-8-azaspiro[4.5]decan-8-yl)-3-(3-chloro-2-(cyclopropylamino)pyridin-4-yl)-5-methyl-1,5-dihydro-4H-pyrazolo[3,4-d]pyrimidin-4-one]
89	Cc1nc(N(C)C)ccc1-c1n[nH]c2nc(N3CCC4(CC3)CO[C@@H](C)[C@H]4N)n(C)c(=O)c12 [Example 40, 6-((3S,4S)-4-amino-3-methyl-2-oxa-8-azaspiro[4.5]decan-8-yl)-3-(6-(dimethylamino)-2-methylpyridin-3-yl)-5-methyl-1,5-dihydro-4H-pyrazolo[3,4-d]pyrimidin-4-one]
33	C[C@@H]1OCC2(CCN(c3nc4[nH]nc(-c5ccccc5)c4c(=O)n3C)CC2)[C@@H]1N [Example 41, 6-((3S,4S)-4-amino-3-methyl-2-oxa-8-azaspiro[4.5]decan-8-yl)-5-methyl-3-phenyl-1,5-dihydro-4H-pyrazolo[3,4-d]pyrimidin-4-one]
20	COc1ccc(-c2n[nH]c3nc(N4CCC5(CC4)CO[C@@H](C)[C@H]5N)n(C)c(=O)c23)cc1 [Example 42, 6-((3S,4S)-4-amino-3-methyl-2-oxa-8-azaspiro[4.5]decan-8-yl)-3-(4-methoxyphenyl)-5-methyl-1,5-dihydro-4H-pyrazolo[3,4-d]pyrimidin-4-one]
84	C[C@@H]1OCC2(CCN(c3nc4[nH]nc(-c5ccnc(N6CC[C@@H](O)C6)c5Cl)c4c(=O)n3C)CC2)[C@@H]1N [Example 43, 6-((3S,4S)-4-amino-3-methyl-2-oxa-8-azaspiro[4.5]decan-8-yl)-3-(3-chloro-2-((R)-3-hydroxypyrrolidin-1-yl)pyridin-4-yl)-5-methyl-1,5-dihydro-4H-pyrazolo[3,4-d]pyrimidin-4-one]
16	C[C@@H]1OCC2(CCN(c3nc4[nH]nc(-c5ccnc(Cl)c5)c4c(=O)n3C)CC2)[C@@H]1N [Example 44, 6-((3S,4S)-4-amino-3-methyl-2-oxa-8-azaspiro[4.5]decan-8-yl)-3-(2-chloropyridin-4-yl)-5-methyl-1,5-dihydro-4H-pyrazolo[3,4-d]pyrimidin-4-one]
